In brackets after ≈: the same amount, converted by molar mass.
Columns and labels:
Bacillus subtilis = assay: Evaluated for its in vitro antimicrobial activity against Bacillus subtilis (6633); assay type: functional
Escherichia coli = assay: Evaluated for its antimicrobial activity against Escherichia coli (25922); assay type: functional
Klebsiella pneumoniae = assay: Evaluated for its antimicrobial activity against Klebsiella pneumoniae (10031); assay type: functional
Proteus mirabilis = assay: Evaluated for its antimicrobial activity against Proteus mirabilis (25933); assay type: functional
Pseudomonas aeruginosa = assay: Evaluated for its antimicrobial activity against Pseudomonas aeruginosa (27853); assay type: functional
Salmonella typhimurium = assay: Evaluated for its antimicrobial activity against Salmonella Typhimurium (14028); assay type: functional, Salmonella enterica subsp. enterica serovar Typhimurium; conditions: Salmonella enterica
Staphylococcus aureus = assay: Evaluated for its in vitro antimicrobial activity against Staphylococcus aureus (6538p); assay type: functional
Serratia marcescens = assay: Evaluated for its antimicrobial activity against Serratia marcescens (27117); assay type: functional
[1] = Evaluated for its in vitro antimicrobial activity against Staphylococcus equisimilis (6580C); assay type: functional
[2] = In vitro minimal hemolytic activity was determined; assay type: functional
Micrococcus luteus = assay: Evaluated for its antimicrobial activity against Micrococcus luteus (9341); assay type: functional

Row | SMILES | MIC (Bacillus subtilis) [µg/mL] | MIC (Escherichia coli) [µg/mL] | MIC (Klebsiella pneumoniae) [µg/mL] | MIC (Proteus mirabilis) [µg/mL] | MIC (Pseudomonas aeruginosa) [µg/mL] | MIC (Salmonella typhimurium) [µg/mL] | MIC (Staphylococcus aureus) [µg/mL] | MIC (Serratia marcescens) [µg/mL] | MIC [1] [µg/mL] | MIC (Micrococcus luteus) [µg/mL] | MHC [2] [µg/mL]
1 | C[C@H](COC(=O)NCCCNCCCCN)[C@H]1CC[C@H]2[C@@H]3[C@H](O)C[C@H]4C[C@H](O)CC[C@]4(C)[C@H]3CC[C@]12C | 6.25 (≈ 12 µM) | 50 (≈ 95.8 µM) | > 100 | > 100 | 25 (≈ 47.9 µM) | > 100 | 3.13 (≈ 6 µM) | > 100 | 12.5 (≈ 24 µM) | 3.13 (≈ 6 µM) | 100
2 | CC(C)[C@@H](CC[C@@H](C)[C@H]1CC[C@H]2[C@@H]3[C@H](O)C[C@H]4C[C@@H](NCCCNCCCCN)CC[C@]4(C)[C@H]3CC[C@]12C)OS(=O)(=O)O [SQUALAMINE] | 3.13 (≈ 4.98 µM) | > 100 | 12.5 (≈ 19.9 µM) | > 100 | > 100 | > 100 | 6.25 (≈ 9.95 µM) | > 100 | 3.13 (≈ 4.98 µM) | 3.13 (≈ 4.98 µM) | 
3 | C[C@H](COC(=O)NCCCNCCCCN)[C@H]1CC[C@H]2[C@@H]3CC[C@@H]4C[C@H](O)CC[C@]4(C)[C@H]3CC[C@]12C | 3.13 (≈ 6.19 µM) | 25 (≈ 49.4 µM) | 3.13 (≈ 6.19 µM) | > 100 | > 100 | 12.5 (≈ 24.7 µM) | 0.78 (≈ 1.54 µM) | > 100 | 3.13 (≈ 6.19 µM) | 1.56 (≈ 3.08 µM) | 25
4 | C[C@H](COC(=O)NCCCNCCCCN)[C@H]1CC[C@H]2[C@@H]3CC[C@H]4C[C@H](O)CC[C@]4(C)[C@H]3CC[C@]12C | 6.25 (≈ 12.4 µM) | > 100 | 1.56 (≈ 3.08 µM) | > 100 | > 100 | 12.5 (≈ 24.7 µM) | 3.13 (≈ 6.19 µM) | > 100 | 12.5 (≈ 24.7 µM) | 3.13 (≈ 6.19 µM) | 25

Continued, in another order:

Row | MIC (Bacillus subtilis) [µg/mL] | MIC (Escherichia coli) [µg/mL] | MIC (Klebsiella pneumoniae) [µg/mL] | MIC (Proteus mirabilis) [µg/mL] | MIC (Pseudomonas aeruginosa) [µg/mL] | MIC (Salmonella typhimurium) [µg/mL] | MIC (Staphylococcus aureus) [µg/mL] | MIC (Serratia marcescens) [µg/mL] | MIC [1] [µg/mL] | MIC (Micrococcus luteus) [µg/mL] | SMILES | MHC [2] [µg/mL]
5 | 1.56 | 6.25 | 6.25 | > 100 | 25 | > 100 | 1.56 | > 100 | 1.56 | 3.13 | C[C@H](COC(=O)NCCCNCCCCNCCC[N+](C)(C)C)[C@H]1CC[C@H]2[C@@H]3CC[C@H]4C[C@H](O)CC[C@]4(C)[C@H]3CC[C@]12C | 25
6 | 3.13 (≈ 5.98 µM) | 12.5 (≈ 23.9 µM) | 12.5 (≈ 23.9 µM) | > 100 | 12.5 (≈ 23.9 µM) | > 100 | 3.13 (≈ 5.98 µM) | > 100 | 6.25 (≈ 11.9 µM) | 3.13 (≈ 5.98 µM) | C[C@H](COC(=O)NCCCNCCCCN)[C@H]1CC[C@H]2[C@@H]3[C@H](F)C[C@H]4C[C@H](O)CC[C@]4(C)[C@H]3CC[C@]12C | 50
7 | 1.56 | 12.5 | > 100 | > 100 | 3.13 | 12.5 | 0.78 | > 100 | 1.56 | 1.56 | C[C@H](COC(=O)NCCCNCCCCNCCC[N+](C)(C)C)[C@H]1CC[C@H]2[C@@H]3CC[C@@H]4C[C@H](O)CC[C@]4(C)[C@H]3CC[C@]12C | 25

From ChEMBL document CHEMBL1134705, “Synthesis and antimicrobial activity of new 3 alpha-hydroxy-23,24-bisnorcholane polyamine carbamates” (2001)
